Starred links: 1 amine or outer side, 2 acyl side, 3 side chain; linkers in the order of their positions; H or OH if unused. Positions of bridges follow the written chain, without caps; N, C: chain ends. Non-standard residues stand in square brackets, D forms with d. Residues, ends and D or L forms follow the SMILES beside them. 1Nal = N[C@@H](Cc1cccc2ccccc12)C(=O)O; TBMB = c1c(C[*:1])cc(C[*:3])cc1C[*:2]; Tle = CC(C)(C)[C@H](N)C(=O)O; βAla = NCCC(=O)O; Sar = CNCC(=O)O
Experiments:
[1] = target: catalytic domain of MT1 (Homo sapiens, UniProt P50281); assay: Bicycle peptide binding to catalytic domain
[2] = target: MMP15 (Homo sapiens, UniProt P51511); assay: Binding to related MMP family member
MMP15, sequence (P51511 132-669, species assumed): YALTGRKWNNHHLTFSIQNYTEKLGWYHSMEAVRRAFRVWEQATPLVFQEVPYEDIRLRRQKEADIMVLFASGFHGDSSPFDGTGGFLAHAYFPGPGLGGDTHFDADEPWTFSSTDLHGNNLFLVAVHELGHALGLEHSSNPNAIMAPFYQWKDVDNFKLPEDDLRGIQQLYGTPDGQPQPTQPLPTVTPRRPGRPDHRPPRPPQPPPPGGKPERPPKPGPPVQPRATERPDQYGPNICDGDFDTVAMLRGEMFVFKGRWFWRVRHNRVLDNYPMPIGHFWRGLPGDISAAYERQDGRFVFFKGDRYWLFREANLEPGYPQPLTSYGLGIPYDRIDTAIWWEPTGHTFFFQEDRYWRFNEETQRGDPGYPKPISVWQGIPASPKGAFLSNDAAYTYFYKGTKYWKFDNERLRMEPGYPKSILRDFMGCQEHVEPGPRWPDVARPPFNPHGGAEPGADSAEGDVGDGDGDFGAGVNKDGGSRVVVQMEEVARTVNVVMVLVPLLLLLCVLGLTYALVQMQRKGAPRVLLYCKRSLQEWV

[3] = target: MMP16 (Homo sapiens, UniProt P51512); assay: Binding to related MMP family member
MMP16, sequence (P51512 120-607, species assumed): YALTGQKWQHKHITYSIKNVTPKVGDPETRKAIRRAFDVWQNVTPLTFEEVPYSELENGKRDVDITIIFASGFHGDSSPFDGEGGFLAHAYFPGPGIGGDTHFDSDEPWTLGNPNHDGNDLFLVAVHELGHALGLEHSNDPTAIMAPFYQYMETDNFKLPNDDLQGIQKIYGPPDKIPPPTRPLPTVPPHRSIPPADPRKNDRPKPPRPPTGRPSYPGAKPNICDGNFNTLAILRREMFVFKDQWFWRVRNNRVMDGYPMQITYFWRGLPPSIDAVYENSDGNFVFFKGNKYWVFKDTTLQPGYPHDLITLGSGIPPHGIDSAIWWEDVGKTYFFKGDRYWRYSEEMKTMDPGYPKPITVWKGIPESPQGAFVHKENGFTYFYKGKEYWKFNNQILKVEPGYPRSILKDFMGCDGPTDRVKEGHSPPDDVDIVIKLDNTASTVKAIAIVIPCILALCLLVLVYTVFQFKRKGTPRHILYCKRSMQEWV

[4] = target: MMP24 (Homo sapiens, UniProt Q9Y5R2); assay: Binding to related MMP family member
MMP24, sequence (Q9Y5R2 156-645, species assumed): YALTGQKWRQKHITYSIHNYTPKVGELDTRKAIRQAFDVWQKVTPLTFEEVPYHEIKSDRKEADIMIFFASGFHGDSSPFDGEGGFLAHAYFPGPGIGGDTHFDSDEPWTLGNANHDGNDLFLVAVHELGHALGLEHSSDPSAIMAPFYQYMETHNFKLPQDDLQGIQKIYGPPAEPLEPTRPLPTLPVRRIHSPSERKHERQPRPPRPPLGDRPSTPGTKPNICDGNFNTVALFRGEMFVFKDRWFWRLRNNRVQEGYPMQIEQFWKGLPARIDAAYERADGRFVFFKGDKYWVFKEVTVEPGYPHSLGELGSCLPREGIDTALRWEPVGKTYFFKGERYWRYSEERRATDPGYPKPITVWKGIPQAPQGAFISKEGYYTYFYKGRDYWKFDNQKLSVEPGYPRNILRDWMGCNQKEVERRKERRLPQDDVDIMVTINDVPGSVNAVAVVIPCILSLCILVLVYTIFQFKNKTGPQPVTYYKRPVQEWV

[5] = target: T1, MMP1 (Homo sapiens, UniProt P03956); assay: Binding to related MMP family member
T1 sequence (P03956 100-469): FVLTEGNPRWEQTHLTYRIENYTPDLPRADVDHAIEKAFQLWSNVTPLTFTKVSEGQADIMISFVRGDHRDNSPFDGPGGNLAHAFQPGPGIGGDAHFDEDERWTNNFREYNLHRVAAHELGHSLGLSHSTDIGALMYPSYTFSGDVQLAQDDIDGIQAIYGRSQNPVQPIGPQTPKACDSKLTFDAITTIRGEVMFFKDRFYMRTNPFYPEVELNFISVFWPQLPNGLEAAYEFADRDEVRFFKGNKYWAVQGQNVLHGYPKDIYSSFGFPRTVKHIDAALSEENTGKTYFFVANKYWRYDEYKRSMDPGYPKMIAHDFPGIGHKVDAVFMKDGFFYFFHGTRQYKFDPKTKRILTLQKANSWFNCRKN

[6] = target: T2, Pro-MMP1 (Homo sapiens, UniProt P03956); assay: Binding to related MMP family member
T2 construct: MMP family members tested (MMP15, MMP16, MMP24, MMP1, Pro-MMP1, MMP2)
T2 sequence (P03956 20-469 limits assumed): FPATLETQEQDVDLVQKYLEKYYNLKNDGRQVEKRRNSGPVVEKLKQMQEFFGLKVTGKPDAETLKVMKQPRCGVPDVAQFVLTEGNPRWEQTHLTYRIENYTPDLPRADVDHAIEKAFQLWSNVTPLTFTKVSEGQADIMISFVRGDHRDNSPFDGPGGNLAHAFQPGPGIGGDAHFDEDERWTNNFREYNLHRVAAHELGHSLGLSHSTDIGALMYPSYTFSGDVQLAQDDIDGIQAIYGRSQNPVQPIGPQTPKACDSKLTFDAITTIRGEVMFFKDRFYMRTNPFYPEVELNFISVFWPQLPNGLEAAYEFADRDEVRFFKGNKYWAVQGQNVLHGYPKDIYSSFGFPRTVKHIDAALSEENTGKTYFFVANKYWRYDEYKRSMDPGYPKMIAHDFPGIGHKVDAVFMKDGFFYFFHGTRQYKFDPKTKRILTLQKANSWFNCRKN

[7] = target: T3, MMP2 (Homo sapiens, UniProt P08253); assay: Binding to related MMP family member
T3 sequence (P08253 110-660): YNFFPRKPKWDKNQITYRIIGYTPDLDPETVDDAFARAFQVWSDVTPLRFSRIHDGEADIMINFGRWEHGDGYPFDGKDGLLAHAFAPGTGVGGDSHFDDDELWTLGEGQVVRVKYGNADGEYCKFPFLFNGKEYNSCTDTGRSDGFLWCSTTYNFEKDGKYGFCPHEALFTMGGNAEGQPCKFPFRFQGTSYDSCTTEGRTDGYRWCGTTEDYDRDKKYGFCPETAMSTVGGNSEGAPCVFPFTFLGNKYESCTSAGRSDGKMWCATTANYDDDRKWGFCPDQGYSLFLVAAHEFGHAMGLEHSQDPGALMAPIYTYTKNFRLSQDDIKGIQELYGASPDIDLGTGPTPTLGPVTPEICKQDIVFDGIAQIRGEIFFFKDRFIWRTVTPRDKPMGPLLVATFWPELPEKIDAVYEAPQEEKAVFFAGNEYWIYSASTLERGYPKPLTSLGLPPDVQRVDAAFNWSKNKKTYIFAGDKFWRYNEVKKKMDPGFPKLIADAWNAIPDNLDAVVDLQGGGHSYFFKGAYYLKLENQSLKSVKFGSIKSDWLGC

[8] = target: MT1 (Homo sapiens, UniProt P50281); assay: Effect on catalytic activity of the protease in vitro; type: biochemical
[9] = target: T1, MMP1; assay: Effect on related MMP catalytic activity; type: biochemical; conditions: in vitro
[10] = target: T3, MMP2; assay: Effect on related MMP catalytic activity; type: biochemical; conditions: in vitro
[11] = target: MMP9 (Homo sapiens, UniProt P14780); assay: Effect on related MMP catalytic activity; type: biochemical; conditions: in vitro
MMP9, sequence (P14780 94-707, species assumed): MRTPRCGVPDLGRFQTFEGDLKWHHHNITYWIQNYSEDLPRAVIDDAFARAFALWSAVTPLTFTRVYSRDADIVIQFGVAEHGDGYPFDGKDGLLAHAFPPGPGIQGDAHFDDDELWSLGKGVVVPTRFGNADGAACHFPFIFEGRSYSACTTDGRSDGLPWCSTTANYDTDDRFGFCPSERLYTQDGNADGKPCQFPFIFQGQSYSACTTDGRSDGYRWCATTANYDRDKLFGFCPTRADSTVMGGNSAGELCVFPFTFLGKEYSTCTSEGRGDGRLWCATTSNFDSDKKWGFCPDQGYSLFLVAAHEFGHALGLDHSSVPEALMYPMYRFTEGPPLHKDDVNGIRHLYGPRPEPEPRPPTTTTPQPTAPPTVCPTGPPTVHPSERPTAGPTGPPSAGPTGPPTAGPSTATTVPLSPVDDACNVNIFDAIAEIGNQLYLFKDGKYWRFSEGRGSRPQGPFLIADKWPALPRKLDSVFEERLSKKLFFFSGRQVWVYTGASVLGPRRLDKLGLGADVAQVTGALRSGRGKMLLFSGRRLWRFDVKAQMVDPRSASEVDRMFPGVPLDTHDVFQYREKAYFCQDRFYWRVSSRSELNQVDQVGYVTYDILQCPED

[12] = tested on: cell migration or invasion; assay: Effect on cell migration or invasion; type: cell-based; conditions: in vitro
[13] = tested on: MT1-positive tumor xenografts; assay: Tumor localization after IV injection into mice bearing MT1-positive tumor xenografts; conditions: mouse, in vivo

SMILES	binding to the catalytic domain [1]	binding toward MMP15 [2]	binding toward MMP16 [3]	binding toward MMP24 [4]	binding toward MMP1 [5]	binding toward Pro-MMP1 [6]	binding toward MMP2 [7]	impact on the catalytic activity of the protease (MT1) [8]	impact on MMP1 catalytic activity [9]	impact on MMP2 catalytic activity [10]	impact on MMP9 catalytic activity [11]	impact on cell migration or invasion [12]	tumor localization [13]
C[C@H](NC(=O)CN(C)C(=O)CN(C)C(=O)CN(C)C(=O)CN(C)C(=O)CN(C)C(=O)CN(C)C(=O)CN(C)C(=O)CN(C)C(=O)CN(C)C(=O)CN(C)C(=O)CCN)C(=O)N[C@H]1CSCc2cc3cc(c2)CSC[C@H](NC(=O)[C@@H](C)NC(=O)[C@H](Cc2cccc4ccccc24)NC(=O)[C@H](CCC(=O)O)NC(=O)[C@H](CC(N)=O)NC(=O)[C@@H](C)NC1=O)C(=O)N[C@@H](CCC(=O)O)C(=O)N[C@@H](CC(=O)O)C(=O)N[C@@H](Cc1ccccc1)C(=O)N[C@@H](Cc1ccc(O)cc1)C(=O)N[C@@H](CC(=O)O)C(=O)N[C@@H](C(C)(C)C)C(=O)N[C@H](C(N)=O)CSC3 [N241] (H-[βAla][Sar][Sar][Sar][Sar][Sar][Sar][Sar][Sar][Sar][Sar]AC[dA]NE[1Nal][dA]CEDFYD[Tle]C-NH2; linker 13-19-26 via TBMB)	no binding	no binding	no binding	no binding	no binding	no binding	no binding	no direct impact	no direct impact	no direct impact	no direct impact	no direct impact	
C[C@H](NC(=O)CN(C)C(=O)CN(C)C(=O)CN(C)C(=O)CN(C)C(=O)CN(C)C(=O)CN(C)C(=O)CN(C)C(=O)CN(C)C(=O)CN(C)C(=O)CN(C)C(=O)CCN)C(=O)N[C@H]1CSCc2cc3cc(c2)CSC[C@H](NC(=O)[C@@H](C)NC(=O)[C@H](Cc2cccc4ccccc24)NC(=O)[C@H](CCC(=O)O)NC(=O)[C@H](CC(N)=O)NC(=O)[C@@H](C)NC1=O)C(=O)N[C@@H](CCC(=O)O)C(=O)N[C@@H](CC(=O)O)C(=O)N[C@@H](Cc1ccccc1)C(=O)N[C@@H](Cc1ccc(O)cc1)C(=O)N[C@@H](CC(=O)O)C(=O)N[C@@H](C(C)(C)C)C(=O)N[C@H](C(N)=O)CSC3 [^177Lu-loaded N241, metal not drawn] (H-[βAla][Sar][Sar][Sar][Sar][Sar][Sar][Sar][Sar][Sar][Sar]AC[dA]NE[1Nal][dA]CEDFYD[Tle]C-NH2; linker 13-19-26 via TBMB; N-terminus and C-terminus assumed)													rapid tumor localization

Source: patent US20220387611A1, “METHODS FOR TREATING CANCER” (BicycleRD Limited, priority 2019, published 2022)
